Data as given in patent US20250320261A1, “ANTIBACTERIAL PEPTIDE” (priority 2021, published 2025).
Like-named read-outs stand apart in the source and are kept apart here. Peptide text beside a SMILES is read from it. * marks the point of attachment. Heptanoyl = CCCCCCC(=O)*; Octanoyl = CCCCCCCC(=O)*; Hexanoyl = CCCCCC(=O)*; Pentanoyl = CCCCC(=O)*

Legend:
S. aureus = assay: Checkerboard analysis of peptide-antibiotic combinations; format: cell-based, Staphylococcus aureus; conditions: combined with different antibiotics
Experimental: (§1) The broth microdilution method was used to determine minimal inhibitory concentration (MIC) and minimal bactericidal concentration (MBC). Two-fold serial dilutions of the peptides were used, and the final concentrations ranged from 0.19-100 μM. The effect of peptide-antibiotic combinations was investigated by performing a checkerboard analysis. […] The fractional inhibitory concentration (FIC) and fractional bactericidal concentration (FBC) were calculated by the equation (MIC or MBC of peptide in combination/MIC or MBC of peptide […] alone)+(MIC or MBC of antibiotic in combination/MIC or MBC of antibiotic alone). Synergy was defined as FIC/FBC≤0.5, additive when 0.5<FIC/FBC≤1, indifferent when 1<FIC/FBC<2 and antagonistic when FIC/FBC≥2. All experiments were repeated at least three times.

E. coli = assay: as above; format: cell-based, Escherichia coli; conditions: combined with different antibiotics
Experimental: as §1

[1] = system: S. aureus (ATCC 29213, MSSA); format: cell-based, Staphylococcus aureus; conditions: for antimicrobial activity against S. aureus (in words): compared with peptide #6 or the parent lipopeptide
Experimental: (§2) S. aureus (ATCC 29213, MSSA, ATCC, Manassas, VA) and E. coli (K-12 MG1655) were streaked on Luria-Bertani (LB) agar plates and incubated at 37° C. overnight. Single colonies were inoculated into 5 ml of LB broth and incubated on a shaker (400 rpm) at 37° C. overnight. The bacterial concentrations were determined by viable count and were adjusted to correlate with approximately 10^9 CFU/ml.
as §1

E. coli (K-12 MG1655) = assay: Broth microdilution MIC/MBC; format: cell-based, Escherichia coli; conditions: for antimicrobial activity against E. coli (in words): compared with peptide #6 or the parent lipopeptide
Experimental: as §2, §1

[2] = system: HaCaT keratinocytes infected with S. aureus; assay: LDH cytotoxicity and cytokine secretion of S. aureus-infected HaCaT keratinocytes; format: cell-based, human; conditions: 24 h, vs positive control
Experimental: After 24 hours of exposure to Staphylococcus aureus (MOI=0.1), and three administrations of L-6-C5-N (2.5, 5, 10, 20 and 40 μM) at 1, 5 and 9 hours post infection. (A) Cytotoxicity, LDH levels normalized against negative control. (B) Interleukin-6. (C) Tumor Necrosis Factor-α. (D) CXC motif ligand 8 levels. (−) indicates negative control (uninfected/unstimulated cells), (+) indicates positive control (S. aureus-infected cells). Statistical analysis was done by ANOVA with Tukey's post hoc test. P-values are indicated by *=[…], ***=0.001.
It was evaluated whether the peptide SEQ ID NO:3 having L-amino acids and an acetylation with five carbon atoms at the N-terminal portion (L-6-C5-N) could effectively reduce an inflammatory response to a bacterial infection to HaCaT keratinocytes. After 24 hours of exposure to Staphylococcus aureus (MOI=0.1), and three administrations of L-6-C5-N SEQ ID NO:3 in different concentrations (2.5, 5, 10, 20 and 40 μM) at 1, 5 and 9 hours post infection, a LDH cytotoxicity assay was performed and IL-6, TNF-α and CXCL-8 concentrations were measured. The symbol (−) indicates negative control (uninfected/unstimulated cells), (+) indicates positive control (S. aureus-infected cells).

human erythrocytes = format: cell-based; conditions: red cells of human, 1 h, 100 μM
Experimental: FIG. 4. Hemolytic activity of SEQ ID NO 1 and SEQ ID NO 3. The hemolytic activity was determined on human erythrocytes (15% suspended in PBS) after exposure to A) SEQ ID NO: 3 with increasing length of fatty acid chains and full length PLNC8 β, B) L-enantiomers of SEQ ID NO: 3 with a fatty acid chain length of 5, 6, and 7 carbon (L-6-C5-N; L-6-C6-N; L-6-C7-N), and L-enantiomers of SEQ ID NO 1 with a fatty acid chain length of 5, 6, and 7 carbon (L-6-C5-N-Leu; L-6-C6-N-Leu; L-6-C7-N-Leu), C) D-enantiomers of SEQ ID NO: 3 with a fatty acid chain length of 5, 6, and 7 carbon (D-6-C5-N; D-6-C6-N; D-6-C7-N), and D-enantiomers of SEQ ID NO: 1 with a fatty acid chain length of 5, 6, and 7 carbon (D-6-C5-N-Leu; D-6-C6-N-Leu; D-6-C7-N-Leu). Erythrocytes were exposed to the peptides using the indicated concentrations for 1 h. […]
The hemolytic activity of the peptides was investigated by collecting blood from healthy volunteers in heparinized vacutainers. […] The plates were incubated for 1 h at 37° C. followed by centrifugation for 5 min at 900×g and absorbance measurement of the supernatants at 540 nm. Hemolytic activity (%) was calculated by subtracting the negative control from all values and normalization against the positive control (0.5% Triton X-100), that was set to 100%. […]

| Compound | MBC E. coli (E. coli (K-12 MG1655); broth microdilution) [µM] | MIC E. coli (E. coli (K-12 MG1655); broth microdilution) [µM] | MBC S. aureus ([1]; ATCC 29213, 20 h) [µM] | MIC S. aureus ([1]; ATCC 29213, 20 h) [µM] | other results |
| --- | --- | --- | --- | --- | --- |
| 6-C2-N: peptide #6 (SEQ ID NO: 3) acetylated with two carbon atoms at the N-terminal (Ac-LGIKILWSAYKHRKTI-NH2) [Peptide 6-C2-N] | – | – | – | – | interaction with antibiotics (FIC/FBC) against S. aureus (S. aureus): additive or synergistic; interaction with antibiotics (FIC/FBC) against E. coli (E. coli): additive or synergistic |
| 6-C5-N: SEQ ID NO:3 having L-amino acids and an acetylation with five carbon atoms at the N-terminal portion (Pentanoyl-LGIKILWSAYKHRKTI-NH2) [Peptide 6-C5-N] | – | – | – | – | antimicrobial activity against S. aureus (in words) [1]: maximum; antimicrobial activity against E. coli (in words) (E. coli (K-12 MG1655)): maximum; interaction with antibiotics (FIC/FBC) against S. aureus (S. aureus): additive or synergistic; interaction with antibiotics (FIC/FBC) against E. coli (E. coli): additive or synergistic; IL-6 secretion, infected HaCaT ([2]; MOI=0.1, 2.5-40 μM at 1, 5 and 9 h post infection): significantly reduced; cell lysis (LDH) of S. aureus-infected HaCaT keratinocytes ([2]; MOI=0.1, 2.5-40 μM given at 1, 5 and 9 h post infection): significantly reduced |
| 6-C6-N: L-enantiomer of SEQ ID NO: 3 with a fatty acid chain length of 6 carbon (Hexanoyl-LGIKILWSAYKHRKTI-NH2; also: C6 fatty acid chain, site not given here) [Peptide 6-C6-N] | – | – | – | – | antimicrobial activity against S. aureus (in words) [1]: maximum; antimicrobial activity against E. coli (in words) (E. coli (K-12 MG1655)): maximum |
| CCCCCCC(=O)N[C@@H](CC(C)C)C(=O)NCC(=O)N[C@H](C(=O)N[C@@H](CCCCN)C(=O)N[C@H](C(=O)N[C@@H](CC(C)C)C(=O)N[C@@H](Cc1c[nH]c2ccccc12)C(=O)N[C@@H](CO)C(=O)N[C@@H](C)C(=O)N[C@@H](Cc1ccc(O)cc1)C(=O)N[C@@H](CCCCN)C(=O)N[C@@H](Cc1c[nH]cn1)C(=O)N[C@@H](CCCNC(=N)N)C(=O)N[C@@H](CCCCN)C(=O)N[C@H](C(=O)N[C@H](C(N)=O)[C@@H](C)CC)[C@@H](C)O)[C@@H](C)CC)[C@@H](C)CC [Peptide 6-C7-N] (Heptanoyl-LGIKILWSAYKHRKTI-NH2) | – | – | – | – | hemolytic activity (human erythrocytes): around 10% |
| CCCCCCCC(=O)N[C@@H](CC(C)C)C(=O)NCC(=O)N[C@H](C(=O)N[C@@H](CCCCN)C(=O)N[C@H](C(=O)N[C@@H](CC(C)C)C(=O)N[C@@H](Cc1c[nH]c2ccccc12)C(=O)N[C@@H](CO)C(=O)N[C@@H](C)C(=O)N[C@@H](Cc1ccc(O)cc1)C(=O)N[C@@H](CCCCN)C(=O)N[C@@H](Cc1c[nH]cn1)C(=O)N[C@@H](CCCNC(=N)N)C(=O)N[C@@H](CCCCN)C(=O)N[C@H](C(=O)N[C@H](C(N)=O)[C@@H](C)CC)[C@@H](C)O)[C@@H](C)CC)[C@@H](C)CC [Peptide 6-C8-N] (Octanoyl-LGIKILWSAYKHRKTI-NH2) | 12.5 | 12.5 | – | – | antimicrobial activity against S. aureus (in words) [1]: did not affect the antimicrobial activity |
| Ac-ILWSAYKHR-NH2 [Peptide S2] | >100 | >100 | – | – | – |
| Ac-KILWSAYKHR-NH2 [Peptide S1] | >100 | >100 | – | – | – |
| Ac-LGIKILRSARKFGKVIEKSF-NH2 [Peptide 15] | >100 | >100 | >100 | >100 | – |
| Ac-LGIKILWSARKFGKVIEKSF-NH2 [Peptide 16] | >100 | >100 | >100 | >100 | – |
| Ac-LGIKILWSAYKHRKTI-NH2 [Peptide 6] | 50 | 50 | – | – | MBC S. aureus ([1]; broth microdilution): 100 µM; MIC S. aureus ([1]; broth microdilution): 100 µM; antimicrobial activity against E. coli (in words) (E. coli (K-12 MG1655)): comparable to the activity of LL-37 |
| Ac-LGQKILRSARKFGKDIEKSF-NH2 [Peptide 14] | >100 | >100 | >100 | >100 | – |
| Ac-LGQKILRSARKFGKTIEKSF-NH2 [Peptide 13] | >100 | >100 | >100 | >100 | – |
| Ac-LLGIKILWKARKFGKVIEKSF-NH2 [Peptide 18] | >100 | 100 | >100 | >100 | – |
| Ac-LLGIKILWSARKFGKVIEKSF-NH2 [Peptide 17] | >100 | >100 | >100 | >100 | – |
| Ac-LWSAYKHR-NH2 [Peptide S3] | >100 | >100 | – | – | – |
| Ac-SVPTSVYTLGIKILWSAYKHRKTIEKSFNKGFYH-NH2 (N-terminus and C-terminus assumed) [PLNC8 β, reference compound] | – | – | – | – | MBC S. aureus ([1]; ATCC 29213): >100 µM; MIC S. aureus ([1]; ATCC 29213): >100 µM; MBC E. coli (E. coli (K-12 MG1655); K-12): >100 µM; MIC E. coli (E. coli (K-12 MG1655); K-12): >100 µM; antimicrobial activity against E. coli (in words) (E. coli (K-12 MG1655)): no activity |
| Ac-TLGIKILWSAYKHRKT-NH2 [Peptide 5] | >100 | >100 | >100 | >100 | – |
| Ac-WSAYK-NH2 [Peptide S6, WSAYK] | >100 | >100 | – | – | – |
| Ac-WSAYKH-NH2 [Peptide S5, WSAYKH] | >100 | >100 | – | – | – |
| Ac-WSAYKHR-NH2 [Peptide S4, WSAYKHR] | >100 | >100 | – | – | – |
| Ac-YTLGIKILWSAYKHRK-NH2 [Peptide 4] | >100 | >100 | >100 | >100 | – |
